According to patent publication US20230295259A1 (Protagonist Therapeutics, Inc., priority 2020, published 2023):

Molecular target: T1, human ferroportin (Homo sapiens, UniProt Q9NP59)
T1 construct: expressed in transfected cells
T1 sequence (Q9NP59 1-571): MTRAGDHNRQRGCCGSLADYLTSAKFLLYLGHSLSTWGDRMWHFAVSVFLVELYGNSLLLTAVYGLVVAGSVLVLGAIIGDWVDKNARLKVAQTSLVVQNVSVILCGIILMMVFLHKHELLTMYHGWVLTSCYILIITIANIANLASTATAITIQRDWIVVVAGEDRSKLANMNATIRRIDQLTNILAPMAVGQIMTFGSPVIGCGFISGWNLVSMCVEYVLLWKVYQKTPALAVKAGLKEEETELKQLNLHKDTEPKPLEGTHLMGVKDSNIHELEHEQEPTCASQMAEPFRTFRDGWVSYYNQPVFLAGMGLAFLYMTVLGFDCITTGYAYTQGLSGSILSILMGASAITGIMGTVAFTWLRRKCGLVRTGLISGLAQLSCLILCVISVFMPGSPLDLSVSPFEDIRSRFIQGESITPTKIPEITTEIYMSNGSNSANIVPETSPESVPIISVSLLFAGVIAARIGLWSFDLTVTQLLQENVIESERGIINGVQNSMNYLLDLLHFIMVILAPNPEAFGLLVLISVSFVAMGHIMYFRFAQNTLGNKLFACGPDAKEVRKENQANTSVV
Assay: FPN activity assay: internalization/degradation of ferroportin-GFP in stably transfected HEK293 cells (decrease in GFP fluorescence)
Assay type: cell-based
Conditions: Table 2D (Illustrative Monomer Hepcidin Analogues); ferroportin-GFP HEK293 cells; read-out: IC50: FPN internalisation
Protocol: Following internalization, the ferroportin protein is degraded.
A retro inverse peptide is a peptide with a reversed sequence in all D amino acids. An example is that Hy-Glu-Thr-His-NH2 becomes Hy-DHis-DThr-DGlu-NH2. The EC50 of these reference compounds for ferroportin internalization/degradation was determined according to the FPN activity assay described above. These peptides served as control standards.
These values were determined as described herein.

Q: With `COC(=O)CC[C@H](NC(=O)CC(C)C)C(=O)N[C@H](C(=O)N[C@@H](Cc1cnc[nH]1)C(=O)N[C@H](C(=O)N1CCC[C@H]1C1CSSC[C@@H](C(N)=O)NC(=O)[C@@H](CCCCN)NC(=O)C[C@H](Cc2ccccc2)NC(=O)[C@H](CCCCNC(=O)COCCOCCNC(=O)COCCOCCNC(=O)[C@H](CN)NC(=O)CCCCCCCCCCCCCCCCC(=O)O)NC(=O)C2(CCCCC2)NC1=O)C(c1ccccc1)c1ccccc1)[C@@H](C)O` (some centres unmarked) [Compound 512] as the compound, how does the DC50 read?
A: 0.0374 µM

Tested on: LAD2 cells
Assay: not given
Assay type: cell-based, human
Conditions: not given
Text: In anaphylactoid reactions, the main mechanism involves the direct stimulation of mast cells or basophils, leading to the release of anaphylactic mediators such as histamine and β-hexosaminidase. A recent study by McNeil et al. (McNeil B D et al., 2015) reported that MrgprX2, a specific membrane receptor on human mast cells, induces anaphylactoid reactions. The LAD2 (Laboratory of Allergic Diseases 2) human mast cell line, derived from human mast cell sarcoma/leukemia (Kirshenbaum et al., 2003), is commonly employed to study anaphylactoid reactions, because its biological properties are identical to those of primary human mast cells, including the overexpression of the MrgprX2 receptor and sensitivity towards degranulating peptides (Kulka et al., 2008). The release of anaphylactic mediators such as f-hexosaminidase, is assessed by fluorometric quantification.
On the day of the assay, serial dilutions of compounds were added to LAD2 cells plated at 20000 cells/well in a 96-well plate. After incubation for 30 minutes, the amount of β-hexosaminidase released into the supernatants and in cell lysates was quantified using the fluorogenic substrate 4-methylumbelliferyl-N-acetyl-b-D-glucosaminide. Dose-response curves were generated by plotting the % of β-hexosaminidase release (y-axis) against the concentrations of peptides tested (x-axis). […]. (Table 2D).

Q: For `CC[C@H](C)[C@@H]1NC(=O)[C@@H](NC(=O)[C@@H]2CCCN2C(=O)[C@@H](NC(=O)[C@H](Cc2cnc[nH]2)NC(=O)[C@@H](NC(=O)[C@H](CCC(=O)O)NC(=O)CC(C)C)[C@@H](C)O)C(c2ccccc2)c2ccccc2)CSSCC(C(N)=O)NC(=O)[C@@H](CCCCNC(=O)CCOCCOCCOCCOCCOCCOCCOCCOCCOCCOCCOCCOC)NC(=O)C[C@H](Cc2ccccc2)NC(=O)[C@H](CCCCNC(=O)COCCOCCNC(=O)COCCOCCNC(=O)CCCCCNC(=O)CCCCCCCCCCCCCCCCC(C)=O)NC1=O` (some centres unmarked) [Compound 255, Isovaleric Acid-E-T-H-[Dpa]-P—C—I-[Lys(1PEG2_1PEG2_Ahx_C18_Diacid)]-[bhPhe]-[(D)Lys(PEG11_OMe)]—C—NH2], which EC50 is on record?
A: > 100 µM

Q: How did the EC50 turn out when `CCCCCCCCCCCCCCCC(=O)NCCCCCC(=O)NCCCC[C@@H]1NC(=O)C[C@H](Cc2ccccc2)NC(=O)[C@@H](CCCCNC(=O)CCOCCOCCOCCOCCOCCOCCOCCOCCOCCOCCOCCOC)NC(=O)[C@H](C(C)CC)NC(=O)C(NC(=O)[C@@H]2CCCN2C(=O)[C@@H](NC(=O)[C@H](Cc2cnc[nH]2)NC(=O)[C@@H](NC(=O)[C@H](CCC(=O)O)NC(=O)CC(C)C)[C@@H](C)O)C(c2ccccc2)c2ccccc2)CSSC[C@@H](C(N)=O)NC(=O)[C@@H](CCCCNC(=O)CCOCCOCCOCCOCCOCCOCCOCCOCCOCCOCCOCCOC)NC1=O` (some centres unmarked) [Compound 19, Isovaleric Acid-E-T-H-[Dpa]-P-[Cys]-I-[(D)Lys(2Peg11′_OMe)]-[bhPhe]-[Lys(Ahx_Palm)]-[(D)Lys(2Peg11′_OMe)]-[Cys]-NH2] was run?
A: > 100 µM

Q: How did the EC50 turn out when `CC[C@H](C)C1NC(=O)[C@@H](NC(=O)[C@@H]2CCCN2C(=O)[C@@H](NC(=O)[C@H](Cc2cnc[nH]2)NC(=O)[C@@H](NC(=O)[C@H](CCC(=O)O)NC(=O)CC(C)C)[C@@H](C)O)C(c2ccccc2)c2ccccc2)CSSC[C@@H](C(N)=O)NC(=O)[C@@H](CCCCN)NC(=O)C[C@H](Cc2ccccc2)CC(=O)C(CCCCNC(=O)CCOCCOCCOCCOCCOCCOCCOCCOCCOCCOCCOCCOCCNC(=O)CCCCCCCCCCCCCCCCC(=O)O)NC1=O` (some centres unmarked) [Compound 113, Isovaleric Acid-E-T-H-[Dpa]-P-[Cys]-I-[Lys(2Peg11′_C18_Diacid)]-[bhPhe]-[(D)Lys]-[Cys]-NH2] was run?
A: 27 µM

Q: With `CC[C@H](C)[C@@H]1NC(=O)[C@@H](NC(=O)[C@@H]2CCCN2C(=O)[C@@H](NC(=O)[C@H](Cc2cnc[nH]2)NC(=O)[C@@H](NC(=O)[C@H](CCC(=O)O)NC(=O)CC(C)C)[C@@H](C)O)C(c2ccccc2)c2ccccc2)CSSC[C@@H](C(N)=O)NC(=O)[C@@H](CCCCNC(=O)CCOCCOCCOCCOCCOCCOCCOCCOC)NC(=O)C[C@H](Cc2ccccc2)NC(=O)[C@H](CCCCNC(=O)COCCOCCNC(=O)COCCOCCNC(=O)CCCCCNC(=O)CCCCCCCCCCCCCCCCC(=O)O)NC1=O` [Compound 256, Isovaleric Acid-E-T-H-[Dpa]-P—C—I-[Lys(1PEG2_1PEG2_Ahx_C18_Diacid)]-[bhPhe]-[(D)Lys(PEG7_OMe)]—C—NH2] as the compound, how does the EC50 read?
A: > 100 µM

Q: Which EC50 does the source give for `CC[C@H](C)[C@@H]1NC(=O)[C@@H](NC(=O)[C@@H]2CCCN2C(=O)[C@@H](NC(=O)[C@H](Cc2cnc[nH]2)NC(=O)[C@@H](NC(=O)[C@H](CCC(=O)O)NC(=O)CC(C)C)[C@@H](C)O)C(c2ccccc2)c2ccccc2)CSSC[C@@H](C(N)=O)NC(=O)[C@@H](CCCCN)NC(=O)C[C@H](Cc2ccccc2)NC(=O)[C@H](CCCCNC(=O)COCCOCCNC(=O)COCCOCCNC(=O)CC[C@H](NC(=O)CCCCCCCCCCCCCCCCC(=O)O)C(=O)O)NC1=O` [Compound 107, Isovaleric Acid-E-T-H-[Dpa]-P-[Cys]-I-[Lys(1Peg2_1Peg2_IsoGlu_C18_Diacid)]-[bhPhe]-[(D)Lys]-[Cys]-NH2] here?
A: > 33 µM

Same assay, conditions: LAD2 mast cells, β-hexosaminidase release, 30 minutes incubation; read-out: EC50: LAD2

Q: “Isovaleric Acid-E-T-H-F—P—C—I-[Lys(IsoGlu_Palm)]-F-E-P—R-S—K-G-C—NH2 [Compound 225]” was tested. Which EC50 did it give?
A: 4.8 µM

Q: With “Isovaleric Acid-E-T-H—F—P—C—I-[Lys(IsoGlu_C18_Diacid)]-F-E-P—R—S—K-G-C—K—NH2 [Compound 222]” as the compound, how does the EC50 read?
A: > 100 µM

Q: “Isovaleric Acid-E-T-H-[Dpa]-P—C—I-[Lys(PEG12_C18_Diacid)]-[bhPhe]-[(D)Lys(PEG11_OMe)]—C—NH2 [Compound 293]” was tested. Which EC50 did it give?
A: > 100 µM

Q: For “Isovaleric Acid-E-T-H-[Dpa]-P-[Cys]-I-[Lys(2Peg11′_IsoGlu_C18)]-[bhPhe]-[(D)Lys]-[Cys]-NH2 [Compound 112]”, which EC50 is on record?
A: 0.52 µM

Q: How did the EC50 turn out when “Isovaleric Acid-E-T-H-[Dpa]-P—C—I-[Lys(PEG4_IsoGlu_C18_Diacid)]-[bhF]-[(D)Lys]-C—NH2 [Compound 239]” was run?
A: > 100 µM

Q: With “Isovaleric Acid-[Glu_OMe]-T-H-[Dpa]-P—C—I-[Lys(1PEG2_1PEG2_Ahx_C18_Diacid)]-[bhPhe]-[(D)Lys]-C—NH2 [Compound 277]” as the compound, how does the EC50 read?
A: 11.7 µM

Q: For “Isovaleric Acid-E-T-H—F—P—C—I-[Lys(1PEG2_1PEG2_Ahx_C18_Diacid)]-F-E-P—R—S—K-G-C—K—NH2 [Compound 221]”, which EC50 is on record?
A: > 100 µM

Q: Which EC50 does the source give for “Isovaleric Acid-E-T-H-[Dpa]-P—C—I-[Lys(1PEG8_IsoGlu_C18_Diacid)]-[bhPhe]-[(D)Lys]-C—NH2 [Compound 238]” here?
A: > 100 µM

Q: With “Isovaleric Acid-E-T-H-[Dpa]-P—C—I-[Lys(1PEG2_1PEG2_1PEG2_C18_Diacid)]-[bhPhe]-[(D)Lys]-C—NH2 [Compound 254]” as the compound, how does the EC50 read?
A: > 33 µM

Q: “Isovaleric Acid-E-T-H-[Dpa]-P—C—I-[Lys(PEG12_IsoGlu_Palm)]-[bhPhe]-[(D)Lys(PEG11_OMe)]—C—NH2 [Compound 291]” was tested. Which EC50 did it give?
A: > 100 µM

Q: How did the EC50 turn out when “Isovaleric Acid-E-T-H-[Dpa]-P—C—I-[Lys(1PEG2_1PEG2_Ahx_C18_Diacid)]-[bhPhe]-[(D)Lys]-[Pen]-NH2 [Compound 280]” was run?
A: 24.3 µM

Q: For “Isovaleric Acid-E-T-H—F—P—C—I-[Lys(IsoGlu_Palm)]-F-E-P—R-S-G-C—NH2 [Compound 226]”, which EC50 is on record?
A: 15.7 µM

Q: With “Isovaleric Acid-E-T-H-[Dpa]-P—C—I-[Lys(1PEG2_1PEG2_IsoGlu_C16_Diacid)]-[bhPhe]-[(D)Lys]-C—NH2 [Compound 232]” as the compound, how does the EC50 read?
A: > 100 µM

Q: “Isovaleric Acid-E-T-H—F—P—C—I-[Lys(1PEG2_1PEG2_IsoGlu_C18_Diacid)]-F-E-P—R—S—K-G-C—K—NH2 [Compound 220]” was tested. Which EC50 did it give?
A: > 33 µM

Q: For “Isovaleric Acid-E-T-H-[Dpa]-P—C—I-[Lys(PEG4_PEG4_IsoGlu_C18_Diacid)]-[bhF]-[(D)Lys]-C—NH2 [Compound 237]”, which EC50 is on record?
A: > 100 µM

Q: Which EC50 does the source give for “Isovaleric Acid-E-T-H-[Dpa]-P—C—I-[Lys(1PEG2_1PEG2_IsoGlu_C18_Diacid)]-[bhPhe]-[(D)Lys]-[Pen]-NH2 [Compound 281]” here?
A: > 100 µM

Q: Which EC50 does the source give for “Isovaleric Acid-E-T-H—F—P—C—I-[Lys(Ahx_Palm)]-F-E-P—R—S—K-G-C—K—NH2 [Compound 223]” here?
A: 0.7 µM

Q: With “Isovaleric Acid-E-T-H-[Dpa]-P—C—I-[Lys(1PEG2_1PEG2_IsoGlu_C12_Diacid)]-[bhPhe]-[(D)Lys]-C—NH2 [Compound 234]” as the compound, how does the EC50 read?
A: > 100 µM

Q: Which EC50 does the source give for “Isovaleric Acid-E-T-H—F—P—C—I-[Lys(IsoGlu_Palm)]-F-E-P—R—S—K-G-[Pen]-K—NH2 [Compound 224]” here?
A: 2.6 µM

Q: Which EC50 does the source give for “Isovaleric Acid-E-T-H—F—P—C—I-[Lys(1PEG2_1PEG2_IsoGlu_C18_Diacid)]-F-E-P—R—S—K-G-C—NH2 [Compound 206]” here?
A: > 100 µM

Q: For “Isovaleric Acid-E-T-H-[Dpa]-P—C—I-[Lys(PEG12_C16_Diacid)]-[bhPhe]-[(D)Lys]-C—NH2 [Compound 265]”, which EC50 is on record?
A: 23.1 µM

Q: Which EC50 does the source give for “Isovaleric Acid-E-T-H-[Dpa]-P—C—I-[Lys(PEG12_IsoGlu_C18_Diacid)]-[bhPhe]-[(D)Lys(PEG11_OMe)]—C—NH2 [Compound 292]” here?
A: > 100 µM

Q: Which EC50 does the source give for “Isovaleric Acid-E-T-H-[Dpa]-P—C—I-[Lys(1PEG2_1PEG2_IsoGlu_C14_Diacid)]-[bhPhe]-[(D)Lys]-C—NH2 [Compound 233]” here?
A: > 100 µM
